Data reported in article PMC4740303, “The Sigma-2 Receptor and Progesterone Receptor Membrane Component 1 are Different Binding Sites Derived From Independent Genes” (EBioMedicine, 2015).
Residue numbers refer to the chain shown, from its start. Entries after “also recorded” stand apart in the source; their conditions may differ.

Tests used:
PGRMC1 [1] = settings: ref Peluso et al., 2008; cited from earlier work
S2R (sigma-2 receptor) = target: T1, S2R (sigma-2 receptor) (Rattus norvegicus, UniProt Q5U3Y7); experiment: Inhibition of [^3H]-DTG binding to the S2R in rat liver membranes
T1 construct: Experiments were performed with rat liver membranes; tissue Pel Freez Biologicals; host or cells: rat liver
T1 sequence (Q5U3Y7 1-176): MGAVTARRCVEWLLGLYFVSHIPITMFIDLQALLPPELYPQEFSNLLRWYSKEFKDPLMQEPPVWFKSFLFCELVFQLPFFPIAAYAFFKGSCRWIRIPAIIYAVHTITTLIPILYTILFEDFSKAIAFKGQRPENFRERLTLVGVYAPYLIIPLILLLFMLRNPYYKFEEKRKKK
Procedure: Rat liver membranes, a rich source of sigma-2 receptor, were prepared as described in our previous reports ([Pal et al., 2007], [Guo et al., 2012]) from frozen tissues (Pel Freez Biologicals, Rogers, AR). Liver tissues were homogenized (10 ml buffer/g wet tissue) by 4 bursts of 10 s each using a Brinkman polytron (American Laboratory Trading Inc., East Lyme, CT) on setting 6 in ice-cold sodium phosphate buffer (10 mM pH 7.4) containing 0.32 M sucrose and a cocktail of protease inhibitors (20 μg/ml leupeptin, 5 μg/ml soybean trypsin inhibitor, 100 μM phenylmethylsulfonyl fluoride (PMSF), 100 μM benzamidine and 1 mM EDTA). The membrane suspension after homogenization was centrifuged for 10 min at 17,000 × g and the supernatant was subjected to ultracentrifugation at 100,000 × g for 1 h to collect membrane fractions. The pellet from the second centrifugation was resuspended to a protein concentration of 10 mg/ml in the foregoing buffer, snapped frozen and stored at − 80 °C.

S2R [2] = target: T2, S2R (Mus musculus, UniProt Q8VD00); experiment: Saturation binding of [^3H]-DTG in NSC34 cell membranes, S1R masked with (+)-pentazocine; settings: mean ± SEM
T2 construct: Membranes (28 μg total proteins per reaction) prepared from NSC34 cells of controls, PGRMC1 knockout, or PGRMC1-3 × HA overexpression; endogenous in cells; host or cells: NSC34 cells (control, PGRMC1 knockout clones 38 and 207, PGRMC1-3xHA overexpressing)
T2 sequence (Q8VD00 1-176): T1 sequence (Q5U3Y7 1-176) with V4L, T5A, M26L, L33V, F71L, V105A, I118L, I127V, N136S, F169Y
Procedure: (§1) Cell membrane preparation was performed following our established method ([Guo et al., 2012]). Briefly, cell pellets were suspended in PBS and sonicated on ice using the following settings: 5 sets (10 strokes/set) at duty cycle = 50, output control = 5. Cell homogenates were centrifuged at 8000 × g for 10 min, and the resulting supernatant was collected and subjected to ultracentrifugation at 100,000 × g for 1 h. The supernatant was discarded and the pellet was gently washed twice with ice-cold PBS. The pellet was then resuspended in PBS and sonicated (3 sets, 10 strokes/set at duty cycle = 50, output control = 5) to homogeneity. Protein concentration was then measured using the standard Bradford reagent (Sigma-Aldrich, St. Louis, MO).

S1R [3] = target: T3, S1R (Mus musculus, UniProt O55242); parameters: method as in Matsumoto et al., 2014; settings: competitive [^3H]-DTG binding assays; ref Matsumoto et al., 2014; cited from earlier work
T3 construct: membranes prepared from control and PGRMC1 knockout (clones 38 and 207) NSC34 cells; endogenous in cells; host or cells: NSC34 cells (control and PGRMC1 knockout clones 38 and 207)
T3 sequence (O55242 whole entry): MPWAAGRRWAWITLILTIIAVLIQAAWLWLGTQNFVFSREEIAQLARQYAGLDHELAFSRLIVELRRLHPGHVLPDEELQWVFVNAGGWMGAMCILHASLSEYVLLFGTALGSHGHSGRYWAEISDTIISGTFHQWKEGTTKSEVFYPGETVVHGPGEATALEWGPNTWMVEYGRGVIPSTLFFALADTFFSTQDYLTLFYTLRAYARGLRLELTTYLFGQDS

S2R [4] = target: T4, S2R (Rattus norvegicus, UniProt Q5U3Y7); experiment: [^125I]-IAF photolabeling of the S2R in PC12 membranes; format: binding
T4 construct: [^125I]-IAF photolabeling of the S2R in PC12 membranes; endogenous in cells; host or cells: PC12 cells
T4 sequence (Q5U3Y7 1-176): T1 sequence (Q5U3Y7 1-176)
Procedure: as §1
(§2) The synthesis of [^125I]-IAF and photolabeling was performed according to our published method ([Pal et al., 2007]). […] [^125I]-IAF was then added (final 1 nM) and incubated for another 40 min with gentle shaking in the dark. Photoactivation of [^125I]-IAF was performed by exposing the samples to a high-pressure AH-6 mercury lamp for 5 s and Laemmli buffer was immediately added to each sample. The samples were then resolved on a 16 × 18 cm SDS gel with 6–18% acrylamide gradient. The gel was dried and exposed to a phosphor screen for 24–48 h and autoradiograms were recorded using a Phosphoimager (Molecular Dynamics).

S2R [5] = target: T2, S2R; parameters: method as in Matsumoto et al., 2014; settings: competitive [^3H]-DTG binding assays; ref Matsumoto et al., 2014; cited from earlier work
S2R [6] = target: T2, S2R; settings: cited from earlier work
S1R [7] = target: T3, S1R; settings: cited from earlier work; for affinity for the S1R: ref Hellewell et al., 1994
S1R [8] = target: T3, S1R; experiment: [^125I]-IAF photolabeling of the S1R in NSC34 cell membranes; format: binding; settings: NSC34 membranes (control and PGRMC1 knockout)
Procedure: as §1, §2

PGRMC1 [9] = test system: PGRMC1; parameters: method as in Xu et al., 2011; settings: ref Xu et al., 2011, cited from earlier work
S2R [10] = target: T2, S2R; experiment: [^125I]-IAF photolabeling of the S2R in NSC34 cell membranes; format: binding; settings: NSC34 membranes (control and PGRMC1 knockout); 20 μM
Procedure: as §1, §2

S1R [11] = target: T5, S1R (Rattus norvegicus, UniProt Q9R0C9); experiment: [^125I]-IAF photolabeling of the S1R in PC12 membranes; format: binding; settings: 20 μM
T5 construct: endogenous in cells; host or cells: PC12 cells
T5 sequence (Q9R0C9 whole entry): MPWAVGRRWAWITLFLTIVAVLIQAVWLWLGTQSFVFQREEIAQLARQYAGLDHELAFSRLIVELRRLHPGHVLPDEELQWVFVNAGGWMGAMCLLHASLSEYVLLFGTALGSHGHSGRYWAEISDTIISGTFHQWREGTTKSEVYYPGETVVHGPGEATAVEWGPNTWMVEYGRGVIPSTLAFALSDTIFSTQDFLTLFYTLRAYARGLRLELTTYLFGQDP
Procedure: as §1, §2

PGRMC1 [12] = target: PGRMC1 (Rattus norvegicus, UniProt P70580); experiment: biochemical
Sequence of PGRMC1 (Rattus norvegicus, UniProt P70580) (P70580 whole entry): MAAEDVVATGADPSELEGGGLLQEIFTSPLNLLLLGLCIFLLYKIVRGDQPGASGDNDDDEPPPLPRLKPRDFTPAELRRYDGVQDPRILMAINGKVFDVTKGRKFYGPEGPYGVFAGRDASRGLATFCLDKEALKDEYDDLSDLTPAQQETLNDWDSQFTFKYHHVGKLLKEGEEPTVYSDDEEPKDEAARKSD
Procedure: Liver tissues were homogenized (10 ml buffer/g wet tissue) by 4 bursts of 10 s each using a Brinkman polytron (American Laboratory Trading Inc., East Lyme, CT) on setting 6 in ice-cold sodium phosphate buffer (10 mM pH 7.4) containing 0.32 M sucrose and a cocktail of protease inhibitors (20 μg/ml leupeptin, 5 μg/ml soybean trypsin inhibitor, 100 μM phenylmethylsulfonyl fluoride (PMSF), 100 μM benzamidine and 1 mM EDTA). The membrane suspension after homogenization was centrifuged for 10 min at 17,000 × g and the supernatant was subjected to ultracentrifugation at 100,000 × g for 1 h to collect membrane fractions. The pellet from the second centrifugation was resuspended to a protein concentration of 10 mg/ml in the foregoing buffer, snapped frozen and stored at − 80 °C.
Inhibition of [^3H]-progesterone binding to PGRMC1 was performed according to [Peluso et al. (2008)]. […] After incubation at 37 °C for 60 min, the reaction was terminated by rapid filtration through glass fiber filters, using a Brandel cell harvester and processed as described above. […] Nonspecific binding was monitored in the presence of nonradioactive progesterone at 10 μM and subtracted from total [^3H]-progesterone binding.

S2R [13] = target: T2, S2R; parameters: method as in Pal et al., 2007; settings: earlier work of the group; ref Pal et al., 2007; cited from earlier work

CC(=O)[C@H]1CC[C@H]2[C@@H]3CCC4=CC(=O)CC[C@]4(C)[C@H]3CC[C@]12C [progesterone]
Kd (PGRMC1 [1]): 0.035 µM
Ki (S2R (sigma-2 receptor)): 14.2 ± 4.9 µM

Cc1ccccc1NC(=N)Nc1ccccc1C [[^3H]-DTG, [^3H]-1,3-Di-tolylguanidine]
Bmax (S2R [2]; Control NSC34 cells (expression vector without PGRMC1 gene)): 2.35 ± 0.5 pmol/mg
Bmax (S2R [2]; PGRMC1-HA overexpressing NSC34 cells): 2.5 ± 0.08 pmol/mg

COc1cc2c(cc1OC)CN(CCCCn1c(=O)n(C)c3ccccc31)CC2 [CM398]
Ki (S1R [3]): 0.56 µM
protection of [^125I]-IAF photolabeling of the S2R (S2R [4]; 1 and 10 μM): selectively blocked the labeling of the S2R
Ki (S2R [5]): 0.00043 µM

O=c1oc2cc(N=C=S)ccc2n1CCCCN1CCN(c2ccc(F)cc2)CC1 [CM572]
type of S2R ligand (S2R [6]; ref Nicholson et al., 2015): irreversible selective affinity label for the S2R

CC(=O)[C@H]1CC[C@H]2[C@@H]3CCC4=CC(=O)CC[C@]4(C)[C@H]3CC[C@]12C [[^3H]-progesterone]
Kd (PGRMC1 [1]): 0.035 µM

CC(C)=CCN1CC[C@]2(C)c3cc(O)ccc3C[C@H]1[C@H]2C [(+)-pentazocine]
affinity for the S1R (S1R [7]): < 10 nM
protection of [^125I]-IAF photolabeling of the S1R (26 kDa band) (S1R [8]; 5 μM): protected against [^125I]-IAF photolabeling of the S1R; also recorded: readily protected
ligand for PGRMC1 (PGRMC1 [9]): not a ligand for PGRMC1

Cc1ccccc1NC(=N)Nc1ccccc1C [DTG, 1,3-di-o-tolylguanidine]
Kd (S1R [7]; read-out: KD for DTG at the S1R, depending on sources of membranes and assay methods, ref Weber et al., 1986, Quirion et al., 1992, Itzhak and Kassim, 1990, Itzhak, 1987): 0.02 to 0.08 µM
affinity for the S1R (S1R [7]): ~ 50 nM
protection of [^125I]-IAF photolabeling of the S2R (~18 kDa band) (S2R [10]): protected against photolabeling of both the S1R and the S2R
protection of [^125I]-IAF photolabeling of the S1R (26 kDa band) (S1R [8]; 20 μM): protected against photolabeling of both the S1R and the S2R
protection of [^125I]-IAF photolabeling of the S1R (S1R [11]): protected
protection of [^125I]-IAF photolabeling of the S2R (S2R [4]; 20 μM): protected
affinity for the S2R (S2R [6]; ref Hellewell et al., 1994): ~ 50 nM
Ki (PGRMC1 [12]): 472 µM
protection of photolabeling of PGRMC1 (with WC-21) (PGRMC1 [9]; 1 μM): protected the photolabeling of PGRMC1
protection of the [^125I]-IAF photolabeled S2R band (S2R [13]): protected
